In ChEMBL document CHEMBL1201862, “PubChem BioAssay data set” (2004):
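Cells were grown in 96-well plates and exposed to each compound for 48 hours at five concentrations; endpoints were interpolated linearly between bracketing concentrations, or set to the highest concentration if not reached. At the GI50, growth is halved.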 Activity calls are given as the source filed them. Rule as the data show it: active = GI50 up to about 1.1 µM and inactive = higher.

Experiments:
Test in all cases: inhibition of tumour cell growth, NCI panel, 48 h
COLO 205 = test system: COLO 205
ACHN = test system: ACHN
SK-MEL-28 = test system: SK-MEL-28
SK-MEL-5 = test system: SK-MEL-5
OVCAR-8 = test system: OVCAR-8
HL-60 = test system: HL-60
SK-MEL-2 = test system: SK-MEL-2
786-0 = test system: 786-0
SK-OV-3 = test system: SK-OV-3
TK-10 = test system: TK-10
UACC-257 = test system: UACC-257
SF-539 = test system: SF-539
RXF 393 = test system: RXF 393
OVCAR-5 = test system: OVCAR-5
SW-620 = test system: SW-620
NCI-H226 = test system: NCI-H226
SNB-75 = test system: SNB-75

Measured: GI50

COc1cc2c(cc1OC)C(=O)N1CCCC1C(=O)S2 (configuration not stated)
inactive: COLO 205 > 100 µM | ACHN > 100 µM | SK-MEL-28 > 100 µM | SK-MEL-5 > 100 µM | OVCAR-8 > 100 µM | HL-60 > 100 µM | SK-MEL-2 > 100 µM | 786-0 > 100 µM | SK-OV-3 > 100 µM | TK-10 > 100 µM | UACC-257 > 100 µM | SF-539 > 100 µM | RXF 393 > 100 µM | OVCAR-5 > 100 µM | SW-620 > 100 µM

O=C1c2ccccc2C(=O)c2nc3ccc(Cl)cc3cc21
inactive: COLO 205 > 100 µM | ACHN > 100 µM | SK-MEL-28 > 100 µM | SK-MEL-5 > 100 µM | OVCAR-8 > 100 µM | SK-MEL-2 > 100 µM | 786-0 > 100 µM | NCI-H226 > 100 µM | SK-OV-3 > 100 µM | TK-10 > 100 µM | SF-539 > 100 µM | SNB-75 > 100 µM | OVCAR-5 > 100 µM | SW-620 > 100 µM

COc1ccc([C@H]2CC(=O)NCCCCN2)cc1
inactive: COLO 205 > 100 µM | ACHN > 100 µM | SK-MEL-28 > 100 µM | SK-MEL-5 > 100 µM | OVCAR-8 > 100 µM | SK-MEL-2 > 100 µM | 786-0 > 100 µM | NCI-H226 > 100 µM | SK-OV-3 > 100 µM | TK-10 > 100 µM | UACC-257 > 100 µM | SF-539 > 100 µM | SNB-75 55.2 µM | RXF 393 > 100 µM | OVCAR-5 > 100 µM

CCN(CC)CCn1c2ccccc2c(=O)c2c(OC)ccc(OC)c21
inactive: COLO 205 38.7 µM | ACHN 47.9 µM | OVCAR-8 48.4 µM | HL-60 84.3 µM | SK-MEL-2 > 100 µM | 786-0 69.5 µM | NCI-H226 60.3 µM | SK-OV-3 > 10 µM | UACC-257 45.8 µM | SF-539 39.1 µM | RXF 393 32.4 µM | OVCAR-5 99.5 µM | SW-620 6.59 µM

CC1COS(=O)O1 (configuration not stated)
inactive: COLO 205 > 100 µM | ACHN > 100 µM | SK-MEL-28 > 100 µM | SK-MEL-5 > 100 µM | OVCAR-8 > 100 µM | HL-60 > 100 µM | SK-MEL-2 > 100 µM | 786-0 > 100 µM | NCI-H226 > 100 µM | SK-OV-3 > 100 µM | TK-10 > 100 µM | UACC-257 > 100 µM | SF-539 > 100 µM | SNB-75 63 µM | OVCAR-5 > 100 µM | SW-620 > 100 µM

O=C1OC(=O)c2c1c(-c1ccccc1)cn2-c1ccc(Cl)cc1
inactive: COLO 205 10.6 µM | ACHN 37.2 µM | SK-MEL-28 > 100 µM | SK-MEL-5 3.38 µM | OVCAR-8 > 100 µM | HL-60 1.15 µM | SK-MEL-2 > 100 µM | 786-0 > 100 µM | NCI-H226 > 100 µM | SK-OV-3 > 100 µM | TK-10 > 100 µM | UACC-257 > 100 µM | SF-539 > 100 µM | SNB-75 > 100 µM | OVCAR-5 > 100 µM | SW-620 > 100 µM

N/N=C(\Cc1ccccc1)NN=C(N)N
inactive: COLO 205 > 100 µM | ACHN 53.7 µM | SK-MEL-28 > 100 µM | SK-MEL-5 > 100 µM | OVCAR-8 > 100 µM | HL-60 > 100 µM | SK-MEL-2 > 100 µM | 786-0 > 100 µM | NCI-H226 > 100 µM | SK-OV-3 > 100 µM | TK-10 > 100 µM | UACC-257 > 100 µM | SF-539 > 100 µM | SNB-75 > 100 µM | OVCAR-5 > 100 µM | SW-620 > 100 µM

COc1nc(NC2OC(COC(C)=O)C(OC(C)=O)C(OC(C)=O)C2OC(C)=O)c(-c2csc(N)n2)c(=O)n1C (configuration not stated)
inactive: COLO 205 > 100 µM | ACHN 38.4 µM | SK-MEL-28 55.7 µM | SK-MEL-5 43.3 µM | OVCAR-8 31.8 µM | SK-MEL-2 21.5 µM | 786-0 20.5 µM | NCI-H226 37.9 µM | SK-OV-3 > 100 µM | TK-10 > 100 µM | UACC-257 58.3 µM | SF-539 54.2 µM | SNB-75 18.4 µM | OVCAR-5 > 100 µM | SW-620 > 100 µM

N#C/C(=C\c1ccc2ccccc2c1)c1ccccc1
inactive: COLO 205 17.8 µM | ACHN 18.7 µM | SK-MEL-28 45.4 µM | SK-MEL-5 16.7 µM | OVCAR-8 32.4 µM | SK-MEL-2 25.8 µM | 786-0 18.9 µM | NCI-H226 53.2 µM | SK-OV-3 26.3 µM | TK-10 34.3 µM | UACC-257 25.5 µM | SF-539 17.3 µM | SNB-75 23.2 µM | RXF 393 38.8 µM | OVCAR-5 98.2 µM | SW-620 28.8 µM

COC(=O)C1=NC(=S)NC(c2ccccc2)C1c1nc2ccccc2o1 (configuration not stated)
inactive: COLO 205 > 50 µM | ACHN > 50 µM | OVCAR-8 > 50 µM | HL-60 > 50 µM | SK-MEL-2 > 50 µM | 786-0 > 50 µM | NCI-H226 > 50 µM | SK-OV-3 > 50 µM | TK-10 > 50 µM | UACC-257 > 50 µM | SF-539 > 50 µM | RXF 393 20.1 µM | OVCAR-5 > 50 µM | SW-620 > 50 µM

O=C(N/C(=C\c1ccc(Oc2ccc(Cl)c(Cl)c2)cc1)c1nc2ccccc2[nH]1)c1ccccc1
inactive: COLO 205 21.9 µM | ACHN 19.7 µM | SK-MEL-28 18.4 µM | SK-MEL-5 16.1 µM | OVCAR-8 14.6 µM | SK-MEL-2 19.2 µM | 786-0 17.3 µM | SK-OV-3 26.2 µM | TK-10 26.1 µM | SF-539 18 µM | RXF 393 13.9 µM | OVCAR-5 22.4 µM | SW-620 16.6 µM

CN(C(=O)C12C3C4C1C1C2C3C41C(N)=O)C(C)(C)C (configuration not stated)
inactive: COLO 205 > 100 µM | ACHN > 100 µM | SK-MEL-28 > 100 µM | SK-MEL-5 > 100 µM | OVCAR-8 > 100 µM | HL-60 > 100 µM | 786-0 > 100 µM | NCI-H226 > 100 µM | SK-OV-3 > 100 µM | TK-10 > 100 µM | SF-539 > 100 µM | SNB-75 > 100 µM | OVCAR-5 > 100 µM | SW-620 > 100 µM

O=C(/C=C/c1ccc(Cl)c(Cl)c1)c1cccc2ccccc12
inactive: COLO 205 12.3 µM | ACHN 16.4 µM | SK-MEL-28 17.8 µM | SK-MEL-5 19.1 µM | OVCAR-8 2.16 µM | HL-60 2.07 µM | 786-0 3.4 µM | NCI-H226 14.4 µM | SK-OV-3 20.3 µM | TK-10 16.8 µM | UACC-257 15.9 µM | SF-539 2.96 µM | SNB-75 3.51 µM | OVCAR-5 13.8 µM | SW-620 1.71 µM
